In patent US6319678A, “Process for glucuronidation screening” (PanVera Corporation, priority 1999, dated 2001):

Columns and labels:
recombinant human UGT1A6 = biological target: T1, recombinant human UGT1A6 (Homo sapiens, UniProt P19224); test: Coupled assay: extracted residues of UGT1A6 / α-naphthol incubation added to b-glucuronidase fluorescence assay (FIG. 3A); type: biochemical
T1 sequence (P19224 27-532): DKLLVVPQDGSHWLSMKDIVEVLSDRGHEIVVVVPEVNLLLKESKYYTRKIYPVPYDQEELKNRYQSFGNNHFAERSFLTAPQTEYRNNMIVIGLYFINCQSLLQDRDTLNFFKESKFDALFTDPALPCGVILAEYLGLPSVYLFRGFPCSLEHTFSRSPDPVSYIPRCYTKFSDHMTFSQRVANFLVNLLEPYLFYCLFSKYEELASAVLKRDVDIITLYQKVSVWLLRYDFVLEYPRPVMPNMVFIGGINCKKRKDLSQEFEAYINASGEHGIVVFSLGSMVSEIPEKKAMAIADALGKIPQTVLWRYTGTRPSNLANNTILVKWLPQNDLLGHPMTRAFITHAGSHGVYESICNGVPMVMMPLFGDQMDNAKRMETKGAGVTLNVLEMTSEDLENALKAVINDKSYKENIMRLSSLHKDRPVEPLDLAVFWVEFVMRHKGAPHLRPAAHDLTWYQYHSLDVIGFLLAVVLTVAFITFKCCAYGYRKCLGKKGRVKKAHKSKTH
From the text: All other reagents were analytical grade or better and purchased from a variety of commercial sources.

[1] = biological target: bacterial b-glucuronidase (Escherichia coli, UniProt P05804); test: Inhibition of b-glucuronidase cleavage of 4-methylumbelliferyl-b-D-glucuronide by competitor b-D-glucuronides (FIG. 2); type: biochemical; conditions: 20 μM 4-methylumbelliferyl-b-D-glucuronide, result in words
Method: FIG. 1 Kinetic measurements of 4-methylumbelliferylb-D-glucuronide cleavage by b-gluuronidase. In part A, 100 μl assays were performed in triplicate using 100 mM Tris-HCl buffer, pH 7.4, containing 10 mM MgCl2, 0.1 μg/ml b-gluuronidase and 5 (.box-solid.), 20 (.tangle-solidup.), and 100 (.circle-solid.) μM, 4-methylumbelliferyl-b-D-glucuronide. Reactions were started by the addition of enzyme, incubated for indicated times at ambient temperature and then quenched with 100 μl of 0.1 M Na2 CO3, pH 9.5, containing 0.1% CHAPS. Fluorescence intensity was measured with a Beacon fluorescent polarization instrument (PanVera Corporation, Madison, Wis.) in intensity mode, using excitation and emission filters of 360 nm and 440 nm, respectively, and slit widths set at 10 nm. Part B, assays were performed in duplicate for 20 min as above with the indicated amount of 4-methylumbelliferyl-b-D-glucuronide. 4-Methyumbelliferone concentration was determined from a calibration curve.
FIG. 2 Inhibition curves. Assays were performed as described in the legend to FIG. 1B with 20 .quadrature.M 4-methylumbelliferyl-b-D-glucuronide and the indicated amount of competitor b-D-glucuronide. Fluorescence intensity due to 4-methylumbelliferyl-b-D-glucuronide cleavage, in the absence of a competitor was arbitrarily assigned as 100%. Competitors, α-napthyl b-D-glucuronide (.box-solid.), .quadrature.-trifluoromethylumbelliferyl-b-D-glucuronide (o), .quadrature.-estradiol 3-.quadrature.b-D-glucuronide) (.tangle-solidup.), p-acetominophenyl b-D-glucuronide (.circle-solid.), 5.quadrature.-androstane-3α, 17α-diol-11-one-17-carboxylic acid-3-(b-D-glucuronide) (.tangle-soliddn.) and UDPGA (.E-backward.) were dissolved in 100 mM Tris-HCl, containing 10 mM MgCl2, pH 7.5. Tetrahydrocortisone 3-b-D-glucuronide (.diamond-solid.) was prepared in DMSO. The DMSO in reaction mixtures was 0.1% or less.
Assay Principle: Cleavage of 4-methylumbelliferyl b-D-glucuronide by bacterial b-glucuronidase generates the highly fluorescent compound, 4-methylumbelliferone. Diverse b-D-glucuronides act as competitors of b-glucuronidase, thus providing the basis of a coupled assay method for detection of glucuronide production by recombinant UGT isozymes. […] The 4-methylumbelliferyl b-D-glucuronide cleavage assay can easily be adapted to high throughput formats to detect the presence of b-D glucuronides generated using recombinant glycosyl transferase preparations.
Methods are included in text and figure legends. b-D-glucuronidase (Part G-7396), α-napthyl b-D-glucuronide, b-trifluoromethylumbelliferyl b-D-glucuronide, b-estradiol 3-(b-D-glucuronide), p-acetominophenyl b-D-glucuronide, 5 .quadrature.-androstane-3α, 17α-diol-11-one-17-carboxilic acid-3-(b-D-glucuronide), UDPGA and 4-methylumbelliferone b-D-glucuronide were obtained from Sigma, St. Louis Mo. Tetrahydrocortisone 3-b-D-glucuronide was obtained from Molecular Probes, Eugene, Oreg. Recombinant control and UGT1A6 membrane preparations were generated at PanVera Corporation and are commercially available from PanVera, Madison Wis. All other reagents were analytical grade or better and purchased from a variety of commercial sources.
In order to show the feasibility of developing a high throughput inhibition assay, we examined the potential of a variety of structurally dissimilar commercially available b-D-glucuronides to act as inhibitors for the cleavage of 4-methylumbelliferyl-b-D-glucuronide. […]

UGT1A6 = test: Accumulation of naphthyl glucuronide in UGT1A6 assay using [14C] UDPGA; type: in vitro ADME, human; conditions: parallel experiment using [14C] UDPGA, data not shown
Method: Two approaches were taken to test the feasibility of coupling the UGT-dependent production of glucuronides to inhibition of fluorescent product formation by b-D-glucuronidase. The first involved extracting the UGT reaction products and adding them to the b-D-glucuronidase fluorescence assay reagents; the second involved adding the b-D-glucuronidase reaction components directly to the quenched UGT reaction. In the first approach, α-naphthyl b-D-glucuronide was generated in an incubation with recombinant human UGT1A6 and α-naphthol. Following extraction, 4-methylumbelliferyl-b-D-glucuronide assay reagents were added to the extracted, dried reaction residues. […] Inhibition of 4-methylumbelliferyl-b-D-glucuronide cleavage was dependent on the incubation time of the UGT1A6 assay, presumably reflecting increased .quadrature.-naphthyl glucuronide accumulation.

UGT1A1 = conditions: as in patients with Gilbert's syndrome; background; cited from earlier work
[2] = background; cited from earlier work
[3] = background; cited from earlier work; remark: listed apart in the source

Sequence of bacterial b-glucuronidase (P05804 whole entry): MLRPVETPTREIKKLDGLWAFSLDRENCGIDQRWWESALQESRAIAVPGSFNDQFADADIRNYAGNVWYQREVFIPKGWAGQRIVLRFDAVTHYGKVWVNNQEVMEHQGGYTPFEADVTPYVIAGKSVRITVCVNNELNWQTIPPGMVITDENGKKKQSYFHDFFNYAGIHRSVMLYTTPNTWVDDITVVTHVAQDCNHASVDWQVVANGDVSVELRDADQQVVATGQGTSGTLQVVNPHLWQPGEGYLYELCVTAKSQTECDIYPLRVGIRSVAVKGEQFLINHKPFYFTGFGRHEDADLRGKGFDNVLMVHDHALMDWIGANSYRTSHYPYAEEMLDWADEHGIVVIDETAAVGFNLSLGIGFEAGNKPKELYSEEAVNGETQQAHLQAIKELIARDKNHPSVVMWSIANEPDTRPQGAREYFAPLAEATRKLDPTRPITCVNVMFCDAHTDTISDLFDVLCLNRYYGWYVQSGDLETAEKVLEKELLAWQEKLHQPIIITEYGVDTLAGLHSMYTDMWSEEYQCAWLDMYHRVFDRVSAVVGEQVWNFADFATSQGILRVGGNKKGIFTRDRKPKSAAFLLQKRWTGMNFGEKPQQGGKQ

SMILES: O=C(O)[C@H]1O[C@@H](Oc2cccc3ccccc23)[C@H](O)[C@@H](O)[C@@H]1O [α-naphthyl b-D-glucuronide]
- inhibition of 4-methylumbelliferyl-b-D-glucuronide cleavage by extracted residues of UGT1A6 assay (recombinant human UGT1A6; FIG. 3A, 0.6 mg/ml UGT1A6, 2 mM UDPGA, 0.6 mM α-naphthol, 37° C, ethyl acetate extraction, vs control microsomes): inhibited 4-methylumbelliferyl-b-D-glucuronide cleavage
- inhibition of 4-methylumbelliferyl-b-D-glucuronide cleavage (production of 4-methylumbelliferone) by b-glucuronidase [1]: weakest
- inhibition of 4-methylumbelliferyl-b-D-glucuronide cleavage (production of 4-methylumbelliferone) by b-glucuronidase ([1]; listed as α-naphthol b-D-glucuronide): weak competitive inhibitor
- accumulation of naphthyl glucuronide in the UGT1A6 assay (UGT1A6): independently verified

SMILES: CCc1c2c(nc3ccc(OC(=O)N4CCC(N5CCCCC5)CC4)cc13)-c1cc3c(c(=O)n1C2)COC(=O)[C@]3(O)CC [Irinotecan]
- toxicity associated with low expression of UGT1A1 (UGT1A1): associated with the toxicity

SMILES: Oc1cccc2ccccc12 [α-naphthol]
- interference of aglycone with the 4-methylumbelliferyl-b-D-glucuronide cleavage assay (recombinant human UGT1A6): does not interfere non-specifically

SMILES: CN1CC[C@]23c4c5ccc(O)c4O[C@H]2[C@@H](O[C@@H]2O[C@H](C(=O)O)[C@@H](O)[C@H](O)[C@H]2O)C=C[C@H]3[C@H]1C5 [6-glucuronide of morphine]
- analgesic potency relative to the parent compound morphine [2]: more potent analgesic than the parent compound

SMILES: C[C@]12CC[C@@H]3c4ccc(O[C@@H]5O[C@H](C(=O)O)[C@@H](O)[C@H](O)[C@H]5O)cc4CC[C@H]3[C@@H]1CC[C@@H]2O [b-estradiol-3-(b-D-glucuronide), b-estradiol 3-(b-D-glucuronide)]
- inhibition of 4-methylumbelliferyl-b-D-glucuronide cleavage (production of 4-methylumbelliferone) by b-glucuronidase [1]: strongest
- inhibition of 4-methylumbelliferyl-b-D-glucuronide cleavage (production of 4-methylumbelliferone) by b-glucuronidase ([1]; listed as estradiol b-D-glucuronide): More potent inhibitors

SMILES: CN1CC[C@]23c4c5ccc(O[C@@H]6O[C@H](C(=O)O)[C@@H](O)[C@H](O)[C@H]6O)c4O[C@H]2[C@@H](O)C=C[C@H]3[C@H]1C5 [3-glucuronide]
- activity towards morphine [3]: morphine antagonist

SMILES: O=C(O)[C@H]1O[C@H](OP(=O)(O)OP(=O)(O)OC[C@H]2O[C@@H](n3ccc(=O)[nH]c3=O)[C@H](O)[C@@H]2O)[C@H](O)[C@@H](O)[C@@H]1O [Uridine 5'-diphosphoglucuronic acid]
- inhibition of 4-methylumbelliferyl-b-D-glucuronide cleavage (production of 4-methylumbelliferone) by b-glucuronidase [1]: not an effective competitor over the range tested
